{
  "source": "the OPERA property sets (Mansouri et al. 2018)",
  "data": [
    {"units": {"boiling point": "°C", "melting point": "°C"}, "values": [
      {"smiles": "C=COC(C)C", "boiling point": 55.5, "melting point": -140},
      {"smiles": "CCOC(=O)C1CC(=O)C(=C(O)C2CC2)C(=O)C1", "note": "(configuration not stated)", "log10 vapour pressure (mmHg)": -4.79, "melting point": 36},
      {"smiles": "CCCCCCCOC(=O)CC", "boiling point": 210, "melting point": -50.9},
      {"smiles": "CCOCn1c(-c2ccc(Cl)cc2)c(C#N)c(Br)c1C(F)(F)F", "melting point": 100},
      {"smiles": "CCCCN1CCOCC1", "boiling point": 214, "melting point": -57.1},
      {"smiles": "C[C@]12CC[C@@H]3c4ccc(OC(=O)N(CCCl)CCCl)cc4CC[C@H]3[C@@H]1CC[C@@H]2O", "melting point": 104},
      {"smiles": "CCCSC(C)C", "boiling point": 132},
      {"smiles": "C=C[C@H]1CNCC[C@H]1CCC(=O)c1ccnc2ccccc12", "melting point": 59},
      {"smiles": "Cc1cc(C)cc(C)c1", "boiling point": 165, "log10 Henry constant (atm·m³/mol)": -2.06, "log10 Koc (L/kg)": 2.82, "log10 biodegradation half-life (days)": 0.477, "log10 vapour pressure (mmHg)": 0.395, "melting point": -44.7, "ready biodegradability": "not readily biodegradable"},
      {"smiles": "CCOC(=O)Oc1c(OC)cc(C(=O)O[C@@H]2C[C@@H]3CN4CCc5c([nH]c6cc(OC)ccc56)[C@H]4C[C@@H]3[C@H](C(=O)OC)[C@H]2OC)cc1OC", "melting point": 177},
      {"smiles": "ClC1=C(Cl)C(Cl)(Cl)C(Cl)(Cl)C1(Cl)Cl", "boiling point": 283, "melting point": 40},
      {"smiles": "CCOC(=O)C(C)OC(=O)c1cc(Oc2ccc(C(F)(F)F)cc2Cl)ccc1[N+](=O)[O-]", "note": "(configuration not stated)", "log10 Koc (L/kg)": 4, "melting point": 45},
      {"smiles": "COC(=O)C(C)O", "note": "(configuration not stated)", "boiling point": 145, "melting point": -66},
      {"smiles": "NC(=O)Cc1cccc2ccccc12", "log10 Koc (L/kg)": 2, "melting point": 184},
      {"smiles": "FCF", "boiling point": -51.6, "log10 vapour pressure (mmHg)": 4.1, "melting point": -136},
      {"smiles": "CSCSC", "boiling point": 148},
      {"smiles": "C=COCCC(C)C", "boiling point": 112},
      {"smiles": "Cc1coc2ccccc12", "boiling point": 197},
      {"smiles": "CCC(CC)C(CC)CC", "boiling point": 164},
      {"smiles": "CCCCC(C)(C)CO", "boiling point": 172},
      {"smiles": "CC1CCC(C)C(C)C1C", "note": "(configuration not stated)", "log10 vapour pressure (mmHg)": 0.117, "melting point": -75},
      {"smiles": "O=C(O)c1ccccc1Cc1ccccc1", "melting point": 118},
      {"smiles": "C=CC=C", "boiling point": -4.4, "log10 vapour pressure (mmHg)": 3.32, "melting point": -109},
      {"smiles": "Cc1cccc([N+](=O)[O-])c1N", "melting point": 96},
      {"smiles": "O=[N+]([O-])c1ccc(SCl)c([N+](=O)[O-])c1", "melting point": 99},
      {"smiles": "CC(C)c1cccc(C(C)C)c1N", "boiling point": 257, "melting point": -45},
      {"smiles": "O=S1(=O)CCCO1", "melting point": 31.5, "ready biodegradability": "readily biodegradable"},
      {"smiles": "CC(Br)C(Br)C(=O)O", "note": "(configuration not stated)", "melting point": 87},
      {"smiles": "O=C(SSC(=O)c1ccccc1)c1ccccc1", "melting point": 134},
      {"smiles": "CN1CC(C(=O)O)CC1=O", "note": "(configuration not stated)", "melting point": 152},
      {"smiles": "O=C(CBr)OCC=CCOC(=O)CBr", "ready biodegradability": "readily biodegradable"},
      {"smiles": "Cc1cccc(C)c1I", "boiling point": 230, "melting point": 11.2},
      {"smiles": "Cc1ccc(P(c2ccc(C)cc2)c2ccc(C)cc2)cc1", "melting point": 149},
      {"smiles": "COC(=O)c1ccccc1C(=O)O", "melting point": 83},
      {"smiles": "COc1ccc(CCC(C)=O)cc1", "melting point": 8},
      {"smiles": "COc1cccc2cccnc12", "boiling point": 283, "melting point": 49.5},
      {"smiles": "c1cc2c(c(NC3=NCCN3)c1)CCCC2", "melting point": 142},
      {"smiles": "O=C1CCC(N2C(=O)c3ccccc3C2=O)C(=O)N1", "note": "(configuration not stated)", "melting point": 270},
      {"smiles": "CC(C)(C)CC1(C)CO1", "note": "(configuration not stated)", "boiling point": 141, "melting point": -64},
      {"smiles": "CC(C)N(Cc1ccccc1)C(=O)C(C)(C)C", "log10 vapour pressure (mmHg)": -3.18},
      {"smiles": "C=COCCOCCOC=C", "boiling point": 198, "log10 vapour pressure (mmHg)": -1.64},
      {"smiles": "CC(=O)Oc1ccc(C2(c3ccc(OC(C)=O)cc3)Oc3ccccc3NC2=O)cc1", "melting point": 190},
      {"smiles": "O=C(OCC(=O)N1CCCCC1)c1ccccc1", "melting point": 88},
      {"smiles": "Cc1ccc(C)cc1", "boiling point": 138, "log10 Henry constant (atm·m³/mol)": -2.16, "log10 Koa": 3.79, "log10 Koc (L/kg)": 2.41, "log10 biodegradation half-life (days)": 0.954, "log10 vapour pressure (mmHg)": 0.947, "melting point": 13.2, "ready biodegradability": "readily biodegradable"},
      {"smiles": "O=Cc1cccc(F)c1", "boiling point": 173},
      {"smiles": "C[C@]12N[C@H](Cc3ccccc31)c1ccccc12", "melting point": 68.8},
      {"smiles": "CCOC(C)(C)CC", "boiling point": 102, "log10 vapour pressure (mmHg)": 1.7},
      {"smiles": "CCCC(CCC)CCC", "boiling point": 158},
      {"smiles": "O=C[C@H](O)C(O)[C@H](O)CO", "note": "(stereo in doubt)", "log10 vapour pressure (mmHg)": -9.71},
      {"smiles": "C=C(C)CCC", "boiling point": 62.1, "log10 vapour pressure (mmHg)": 2.29},
      {"smiles": "Cc1ccc2nc(-c3ccc(N)cc3)sc2c1", "boiling point": 434, "melting point": 195},
      {"smiles": "CCCCCC(=O)OCC", "boiling point": 167, "log10 Koc (L/kg)": 2.06, "melting point": -67},
      {"smiles": "O=[N+]([O-])c1ccc2[nH]cnc2c1", "melting point": 208, "ready biodegradability": "not readily biodegradable"},
      {"smiles": "COCC(C)C", "boiling point": 58.6, "log10 vapour pressure (mmHg)": 2.32},
      {"smiles": "O=C(O)CO", "log10 vapour pressure (mmHg)": -1.7, "melting point": 79.5, "ready biodegradability": "readily biodegradable"},
      {"smiles": "CC(C(=O)O)c1ccc(-c2ccccc2)c(F)c1", "note": "(configuration not stated)", "melting point": 110},
      {"smiles": "N#C/C=C/c1ccccc1", "boiling point": 264, "melting point": 22},
      {"smiles": "O=C(O)Cc1ccccc1", "boiling point": 266, "log10 Koc (L/kg)": 1.45, "log10 vapour pressure (mmHg)": -2.42, "melting point": 76.5, "ready biodegradability": "readily biodegradable"},
      {"smiles": "COc1nc2c(c(=O)n(C)c(=O)n2C)n1C", "melting point": 176},
      {"smiles": "COC(=O)c1ccc(C)cc1", "boiling point": 220, "melting point": 33.2},
      {"smiles": "CC(=O)C1CC=C(C)CC1", "note": "(configuration not stated)", "boiling point": 171},
      {"smiles": "C=CC(O)C=C", "boiling point": 116},
      {"smiles": "OCC#CCO", "boiling point": 238, "log10 vapour pressure (mmHg)": -3.25, "melting point": 50}
    ]}
  ]
}
